PMC9194828, “Chemoenzymatic Synthesis of Asymmetrically Branched Human Milk Oligosaccharide Lacto-N-Hexaose” (Frontiers in Chemistry, 2022)

Target: T1, HP0826 (β1,4-galactosyltransferase) (Helicobacter pylori, UniProt O25500)
T1 construct: gene HP_0826; recombinantly expressed per earlier literature (Fang et al., 2018); used as cell lysate in synthesis
Experiment: acceptor specificity test
Format: cell-based
Conditions: UDP-Gal donor; enzyme preparation not given

T1 sequence (O25500 entry or part of it): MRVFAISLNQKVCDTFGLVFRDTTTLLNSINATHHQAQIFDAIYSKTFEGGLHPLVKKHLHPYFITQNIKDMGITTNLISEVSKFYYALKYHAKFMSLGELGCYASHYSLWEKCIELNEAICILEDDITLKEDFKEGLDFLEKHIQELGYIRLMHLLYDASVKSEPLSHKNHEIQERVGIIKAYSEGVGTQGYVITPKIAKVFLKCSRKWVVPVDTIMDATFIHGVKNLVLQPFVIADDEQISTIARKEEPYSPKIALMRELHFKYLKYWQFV

CC(=O)N[C@H]1[C@H](OCCCCCCN=[N+]=[N-])O[C@H](CO)[C@@H](O)[C@@H]1O [GlcNAc-C6N3]
acceptor specificity test: HP0826 exhibited excellent enzymatic activity on GlcNAc-C6N3
